Laboratory results taken from PubChem BioAssay (NCI).
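Cells were grown in 96-well plates and exposed to each compound for 48 hours at five concentrations; endpoints were interpolated linearly between bracketing concentrations, or set to the highest concentration if not reached. GI50 marks 50% less growth. TGI marks complete inhibition of growth.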

What was measured:
Test in all cases: DTP human tumour cell line panel, 48 h
786-0 renal = test system: 786-0 renal
A498 renal = test system: A498 renal
A549 NSCLC = test system: A549 NSCLC
ACHN renal = test system: ACHN renal
BT-549 breast = test system: BT-549 breast
CAKI-1 renal = test system: CAKI-1 renal
CCRF-CEM leukemia = test system: CCRF-CEM leukemia
COLO 205 colon = test system: COLO 205 colon
DU-145 prostate = test system: DU-145 prostate
EKVX NSCLC = test system: EKVX NSCLC
HCC-2998 colon = test system: HCC-2998 colon
HCT-116 colon = test system: HCT-116 colon
HCT-15 colon = test system: HCT-15 colon
HL-60(TB) leukemia = test system: HL-60(TB) leukemia
HOP-62 NSCLC = test system: HOP-62 NSCLC
HS 578T breast = test system: HS 578T breast
HT29 colon = test system: HT29 colon
IGROV1 ovarian = test system: IGROV1 ovarian
K-562 leukemia = test system: K-562 leukemia
KM12 colon = test system: KM12 colon
LOX IMVI melanoma = test system: LOX IMVI melanoma
M14 melanoma = test system: M14 melanoma
MALME-3M melanoma = test system: MALME-3M melanoma
MCF7 breast = test system: MCF7 breast
MDA-MB-231 breast = test system: MDA-MB-231 breast
MDA-MB-435 = test system: MDA-MB-435
MOLT-4 leukemia = test system: MOLT-4 leukemia
NCI-H226 lung = test system: NCI-H226 lung
NCI-H23 lung = test system: NCI-H23 lung
NCI-H460 lung = test system: NCI-H460 lung
NCI-H522 lung = test system: NCI-H522 lung
NCI/ADR-RES ovarian = test system: NCI/ADR-RES ovarian
OVCAR-3 ovarian = test system: OVCAR-3 ovarian
OVCAR-4 ovarian = test system: OVCAR-4 ovarian
OVCAR-5 ovarian = test system: OVCAR-5 ovarian
OVCAR-8 ovarian = test system: OVCAR-8 ovarian
PC-3 prostate = test system: PC-3 prostate
RPMI-8226 leukemia = test system: RPMI-8226 leukemia
RXF 393 renal = test system: RXF 393 renal
SF-268 CNS = test system: SF-268 CNS
SF-295 CNS = test system: SF-295 CNS
SF-539 CNS = test system: SF-539 CNS
SK-MEL-2 melanoma = test system: SK-MEL-2 melanoma
SK-MEL-28 melanoma = test system: SK-MEL-28 melanoma
SK-MEL-5 melanoma = test system: SK-MEL-5 melanoma
SK-OV-3 ovarian = test system: SK-OV-3 ovarian
SN12C renal = test system: SN12C renal
SNB-19 CNS = test system: SNB-19 CNS
SNB-75 CNS = test system: SNB-75 CNS
SR leukemia = test system: SR leukemia
SW-620 colon = test system: SW-620 colon
TK-10 renal = test system: TK-10 renal
U251 CNS = test system: U251 CNS
UACC-257 melanoma = test system: UACC-257 melanoma
UACC-62 melanoma = test system: UACC-62 melanoma
UO-31 renal = test system: UO-31 renal

Compound `O=C1NN2CC(c3ccccc3)=NN=C2c2ccccc21` has a GI50 (786-0 renal) of 26.2 µM, a TGI (786-0 renal) of 72.3 µM and a GI50 (A498 renal) of 87.5 µM. It also gave a TGI (A498 renal) of over 100 µM, a GI50 (A549 NSCLC) of 28.6 µM and a TGI (A549 NSCLC) of 70.8 µM. The GI50 (ACHN renal) was 36.9 µM, the TGI (ACHN renal) was over 100 µM and the GI50 (BT-549 breast) was 24.5 µM. It also gave a TGI (BT-549 breast) of 57 µM, a GI50 (CAKI-1 renal) of 33.5 µM and a TGI (CAKI-1 renal) of over 100 µM. The GI50 (CCRF-CEM leukemia) was 22.9 µM, the TGI (CCRF-CEM leukemia) was 55.7 µM and the GI50 (COLO 205 colon) was 20.3 µM. The TGI (COLO 205 colon) was 41 µM, the GI50 (DU-145 prostate) was 31.3 µM and the TGI (DU-145 prostate) was 99 µM. For the same compound, the GI50 (EKVX NSCLC) was 31.3 µM, the TGI (EKVX NSCLC) was over 100 µM and the GI50 (HCC-2998 colon) was 15.6 µM. For the same compound, the TGI (HCC-2998 colon) was 36.2 µM, the GI50 (HCT-116 colon) was 17.4 µM and the TGI (HCT-116 colon) was 36.7 µM. For the same compound, the GI50 (HCT-15 colon) was 24.4 µM, the TGI (HCT-15 colon) was 86.3 µM and the GI50 (HL-60(TB) leukemia) was 19.9 µM. It also gave a TGI (HL-60(TB) leukemia) of 56.8 µM, a GI50 (HOP-62 NSCLC) of 35 µM and a TGI (HOP-62 NSCLC) of over 100 µM. It also gave a GI50 (HS 578T breast) of 68 µM, a TGI (HS 578T breast) of over 100 µM and a GI50 (HT29 colon) of 24.7 µM. It also gave a TGI (HT29 colon) of 49 µM, a GI50 (IGROV1 ovarian) of 42.8 µM and a TGI (IGROV1 ovarian) of over 100 µM. The GI50 (K-562 leukemia) was 28.2 µM, the TGI (K-562 leukemia) was over 100 µM and the GI50 (KM12 colon) was 31.9 µM. For the same compound, the TGI (KM12 colon) was over 100 µM, the GI50 (LOX IMVI melanoma) was 22.6 µM and the TGI (LOX IMVI melanoma) was 47 µM. The GI50 (M14 melanoma) was 21.9 µM, the TGI (M14 melanoma) was 48.9 µM and the GI50 (MALME-3M melanoma) was 32.1 µM. For the same compound, the TGI (MALME-3M melanoma) was 87.6 µM, the GI50 (MCF7 breast) was 15.8 µM and the TGI (MCF7 breast) was 37.2 µM. The GI50 (MDA-MB-231 breast) was 26.4 µM, the TGI (MDA-MB-231 breast) was 79.1 µM and the GI50 (MDA-MB-435) was 36.7 µM. The TGI (MDA-MB-435) was over 100 µM, the GI50 (MOLT-4 leukemia) was 11.1 µM and the TGI (MOLT-4 leukemia) was over 100 µM. It also gave a GI50 (NCI-H226 lung) of 22.8 µM, a TGI (NCI-H226 lung) of 57.8 µM and a GI50 (NCI-H23 lung) of 17.7 µM. The TGI (NCI-H23 lung) was 38.7 µM, the GI50 (NCI-H460 lung) was 30.3 µM and the TGI (NCI-H460 lung) was 92.6 µM. It also gave a GI50 (NCI-H522 lung) of 34.7 µM, a TGI (NCI-H522 lung) of 77.1 µM and a GI50 (NCI/ADR-RES ovarian) of 17.5 µM. It also gave a TGI (NCI/ADR-RES ovarian) of 42.7 µM, a GI50 (OVCAR-3 ovarian) of 20.1 µM and a TGI (OVCAR-3 ovarian) of 48.2 µM. It also gave a GI50 (OVCAR-4 ovarian) of 61 µM, a TGI (OVCAR-4 ovarian) of over 100 µM and a GI50 (OVCAR-5 ovarian) of 37.9 µM. It also gave a TGI (OVCAR-5 ovarian) of over 100 µM, a GI50 (OVCAR-8 ovarian) of 29.1 µM and a TGI (OVCAR-8 ovarian) of 74 µM. For the same compound, the GI50 (PC-3 prostate) was 12.6 µM, the TGI (PC-3 prostate) was 33.8 µM and the GI50 (RPMI-8226 leukemia) was 19.4 µM. For the same compound, the TGI (RPMI-8226 leukemia) was 41.7 µM, the GI50 (RXF 393 renal) was 23 µM and the TGI (RXF 393 renal) was 48.4 µM. For the same compound, the GI50 (SF-268 CNS) was 26.8 µM, the TGI (SF-268 CNS) was 82.3 µM and the GI50 (SF-295 CNS) was 32.8 µM. It also gave a TGI (SF-295 CNS) of over 100 µM, a GI50 (SF-539 CNS) of 25.8 µM and a TGI (SF-539 CNS) of 56.8 µM. It also gave a GI50 (SK-MEL-2 melanoma) of 52.8 µM, a TGI (SK-MEL-2 melanoma) of over 100 µM and a GI50 (SK-MEL-28 melanoma) of 28.1 µM. It also gave a TGI (SK-MEL-28 melanoma) of over 100 µM, a GI50 (SK-MEL-5 melanoma) of 26.8 µM and a TGI (SK-MEL-5 melanoma) of 67.2 µM. For the same compound, the GI50 (SK-OV-3 ovarian) was 24.2 µM, the TGI (SK-OV-3 ovarian) was 51 µM and the GI50 (SN12C renal) was 29.1 µM. The TGI (SN12C renal) was 78.3 µM, the GI50 (SNB-19 CNS) was 20.5 µM and the TGI (SNB-19 CNS) was 44.7 µM. For the same compound, the GI50 (SNB-75 CNS) was over 100 µM, the TGI (SNB-75 CNS) was over 100 µM and the GI50 (SR leukemia) was 0.507 µM. For the same compound, the TGI (SR leukemia) was 42 µM, the GI50 (SW-620 colon) was 33 µM and the TGI (SW-620 colon) was over 100 µM. For the same compound, the GI50 (TK-10 renal) was 31.5 µM, the TGI (TK-10 renal) was 98.3 µM and the GI50 (U251 CNS) was 18 µM. The TGI (U251 CNS) was 33.9 µM, the GI50 (UACC-257 melanoma) was 59.1 µM and the TGI (UACC-257 melanoma) was over 100 µM. It also gave a GI50 (UACC-62 melanoma) of 22.6 µM, a TGI (UACC-62 melanoma) of 49.5 µM and a GI50 (UO-31 renal) of 28 µM. For the same compound, the TGI (UO-31 renal) was 66.6 µM.
